Results as given in PubChem BioAssay AID179 (DTP/NCI, 2004).
Activity calls are given as the source filed them.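 How the source made its calls: active means compounds giving half or more protection of infected cells from virus-caused growth loss, again on retest; inactive means the rest.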

Tested on: CEM cells HIV-1 protection, formazan growth assay
Assay: NCI AIDS Antiviral Assay
Details: for IC50: measured here: growth of uninfected CEM cells
Method in brief: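 Protection of CEM cells against HIV-1 measured as cell growth via soluble formazan read-out, with five concentrations tested on both infected and uninfected cells; failure to protect may reflect toxicity.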

Compound | EC50 [µM] | IC50 [µM] | outcome
CCOC(=O)C(=O)Nc1nc2ccc(OC)cc2s1 | > 447 | > 447 | 
O=c1ccc2ccc3occc(=O)c3c2o1 | > 120 | 102 | 
Cc1ccc(S(=O)(=O)/C(C#N)=C/n2ccc(=O)[nH]c2=S)cc1 | > 200 | > 200 | 
O=C(O)Cn1c(=O)[nH]c(=O)c2c1ncn2Cc1ccccc1 | > 832 | > 832 | 
Cc1cc(N(CCC#N)CCC#N)ccc1/C=C(\NC(=O)/C=C/c1ccccc1)C(=O)Nc1ccc(Cl)cc1 | > 13.5 | > 13.5 | 
O=C1N2CCNc3ccccc3C(c3ccccc3)N1CC2 (stereo unspecified) | > 200 | 18.6 | 
O.O.O=C(O)C(=O)O.O=C(O)C(=O)O.[Cu] | > 200 | 20.9 | 
CC(C)(C)C(=O)C(Cc1ccccc1)C(=O)C(C)(C)C |  |  | inactive
NCCOc1c2occc2cc2ccc(=O)oc12 | > 275 | 20.4 | 
O=C(CC(=O)N1N=C(N(c2ccccc2)c2ccccc2)CC1c1ccccc1)Nc1cccc(Cl)c1 (stereo unspecified) | 25.1 | > 200 | 
N#CC1=C(c2ccccc2)OC2(N)OC(c3ccccc3)=C(C#N)C12C#N (stereo unspecified) |  |  | inactive
COC(=O)C(Cc1cn(C(C)n2cc(CC(NC(C)=O)C(=O)OC)c3ccccc32)c2ccccc12)NC(C)=O (stereo unspecified) | > 81.3 | 74.1 | 
CCOC(=S)SCC(=O)c1cccc([N+](=O)[O-])c1 |  |  | inactive
CCOC(C)C(=O)OC[C@@H](C(=O)OC1C[C@@H]2[C@@H]3O[C@@H]3[C@H](C1)[N+]2(C)C)c1ccccc1 (stereo partly specified) | > 200 | > 200 | 
Cc1cc(NS(=O)(=O)c2ccc(NC(=O)c3ccccc3SC(=O)CCCC[n+]3ccccc3)cc2)nc(C)n1 | 26.3 | 107 | 
C[C@]12CC[C@H](O)CC1CC[C@@H]1C2CC[C@]2(C)NC(=O)CCC12 (stereo partly specified) |  |  | inactive
C[C@H]1C(=O)c2c(cc(O)c(C3OC(CO)C(O)C(O)C3O)c2O)OC1c1ccc(O)c(O)c1 (stereo partly specified) |  |  | inactive
Cc1occc1C(=S)Nc1ccc(Cl)c(/C=N/OC(C)(C)C)c1 | 0.195 | 14.8 | 

Compound | EC50 [µM] | IC50 [µM] | outcome
CCCCCCCCCCCCC(C(=O)O)C(=O)O | > 251 | > 251 | 
CC(C)C(=O)C(C)(C)C(=O)C(C)(C)C(=O)OC(C)(C)C | > 200 | > 200 | 
O=C(/C=C/c1ccc(Cl)cc1)c1ccc(Cl)s1 | > 200 |  | 
O=C(O)CSC(=S)NCCNC(=S)SCC(=O)O | > 95.5 | 72.4 | 
Cn1cnc([N+](=O)[O-])c1Sc1nc2ncccc2[nH]1 | > 912 | 21.9 | 
COc1cc2c(c3c1C1Oc4cc(OCc5ccccc5)c(O)cc4C1C(C)(C)O3)CCC(C)(C)O2 (stereo unspecified) | > 200 | 36.3 | 
CC/C(=N/OC(=O)NC)c1ccccc1 | > 200 | > 200 | 
CCCC(C(=O)OCC)N1C(=O)c2ccccc2S1(=O)=O (stereo unspecified) | > 200 | 148 | 
CNC(=O)OCc1c(COC(=O)NC)c2n(c1C)CSC2 | > 200 | 8.13 | 
O=C1CC(c2ccccc2)C(c2ccccc2)C1=O (stereo unspecified) | > 129 | 52.5 | 
O=c1c2cccnc2ncn1CCN1CCCC1 |  |  | inactive
Cc1ccc(S(=O)(=O)n2cc(C#N)c(C#N)c2)cc1 | > 200 | 57.5 | 
C[CH2][Ge]([CH2]C)([CH2]C)[O]C(=O)C([O][Ge]([CH2]C)([CH2]C)[CH2]C)c1ccccc1 (stereo unspecified) | > 200 | 20.9 | 
CC1=NN(C(=O)CC(=O)Nc2cccc(C)c2)C(=O)C1N=Nc1ccc(C(=O)O)cc1 (stereo unspecified) | > 200 | 28.2 | 
CC(=O)Nc1c(I)c(NC(C)=O)c(I)c(C(=O)O)c1I |  |  | inactive
CCOC(=O)c1sc2c(C(=O)OCC)c3ccccn3c2c1C |  |  | inactive
Cc1cc2[nH]c3c(C#N)c(O)c(C)c(=O)n3c2cc1C | > 166 | > 166 | 
